Laboratory results published in the NIST ThermoML archive (doi:10.1021/je034062r).
± gives the expanded uncertainty stated by the source.

Assay: xn = mol fraction of the nth substance listed
Settings: for mass density: Liquid; for surface tension liquid-gas: Pendant drop shape

## CC(C)=O [acetone] + Cc1ccccc1
283.15 K, x2 = 0
  mass density: 803.2 ± 1.7 kg/m3
283.15 K, x2 = 0.1
  mass density: 815.1 ± 1.7 kg/m3
283.15 K, x2 = 0.2002
  mass density: 823.5 ± 1.6 kg/m3
283.15 K, x2 = 0.3002
  mass density: 832.2 ± 1.6 kg/m3
283.15 K, x2 = 0.3997
  mass density: 841.2 ± 1.5 kg/m3
283.15 K, x2 = 0.4973
  mass density: 847.6 ± 1.5 kg/m3
283.15 K, x2 = 0.6011
  mass density: 854.7 ± 1.4 kg/m3
283.15 K, x2 = 0.7004
  mass density: 860.8 ± 1.4 kg/m3
283.15 K, x2 = 0.7998
  mass density: 866.4 ± 1.3 kg/m3
283.15 K, x2 = 0.8982
  mass density: 871.5 ± 1.3 kg/m3
287.81 K, x2 = 0
  surface tension liquid-gas: 23.94 ± 0.27 mN/m
287.81 K, x2 = 0.1
  surface tension liquid-gas: 24.56 ± 0.27 mN/m
287.81 K, x2 = 0.2002
  surface tension liquid-gas: 25.24 ± 0.28 mN/m
287.81 K, x2 = 0.3002
  surface tension liquid-gas: 25.89 ± 0.29 mN/m
287.81 K, x2 = 0.3997
  surface tension liquid-gas: 26.46 ± 0.29 mN/m
287.81 K, x2 = 0.4973
  surface tension liquid-gas: 27.1 ± 0.3 mN/m
287.81 K, x2 = 0.6011
  surface tension liquid-gas: 27.68 ± 0.3 mN/m
287.81 K, x2 = 0.7004
  surface tension liquid-gas: 28.24 ± 0.3 mN/m
287.81 K, x2 = 0.7998
  surface tension liquid-gas: 28.48 ± 0.31 mN/m
287.81 K, x2 = 0.8982
  surface tension liquid-gas: 28.73 ± 0.31 mN/m
288.15 K, x2 = 0
  mass density: 798.2 ± 1.8 kg/m3
288.15 K, x2 = 0.1
  mass density: 809.8 ± 1.7 kg/m3
288.15 K, x2 = 0.2002
  mass density: 818.2 ± 1.6 kg/m3
288.15 K, x2 = 0.3002
  mass density: 826.8 ± 1.6 kg/m3
288.15 K, x2 = 0.3997
  mass density: 836.1 ± 1.5 kg/m3
288.15 K, x2 = 0.4973
  mass density: 842.6 ± 1.5 kg/m3
288.15 K, x2 = 0.6011
  mass density: 849.9 ± 1.4 kg/m3
288.15 K, x2 = 0.7004
  mass density: 856 ± 1.4 kg/m3
288.15 K, x2 = 0.7998
  mass density: 861.7 ± 1.4 kg/m3
288.15 K, x2 = 0.8982
  mass density: 866.9 ± 1.3 kg/m3
293.15 K, x2 = 0
  mass density: 792.6 ± 1.8 kg/m3
293.15 K, x2 = 0.1
  mass density: 804.2 ± 1.7 kg/m3
293.15 K, x2 = 0.2002
  mass density: 812.5 ± 1.7 kg/m3
293.15 K, x2 = 0.3002
  mass density: 821.4 ± 1.6 kg/m3
293.15 K, x2 = 0.3997
  mass density: 830.7 ± 1.6 kg/m3
293.15 K, x2 = 0.4973
  mass density: 837.3 ± 1.5 kg/m3
293.15 K, x2 = 0.6011
  mass density: 844.6 ± 1.5 kg/m3
293.15 K, x2 = 0.7004
  mass density: 850.9 ± 1.4 kg/m3
293.15 K, x2 = 0.7998
  mass density: 856.6 ± 1.4 kg/m3
293.15 K, x2 = 0.8982
  mass density: 861.9 ± 1.4 kg/m3
297.82 K, x2 = 0
  surface tension liquid-gas: 22.78 ± 0.26 mN/m
297.82 K, x2 = 0.1
  surface tension liquid-gas: 23.28 ± 0.26 mN/m
297.82 K, x2 = 0.2002
  surface tension liquid-gas: 23.78 ± 0.27 mN/m
297.82 K, x2 = 0.3002
  surface tension liquid-gas: 24.36 ± 0.27 mN/m
297.82 K, x2 = 0.3997
  surface tension liquid-gas: 24.93 ± 0.28 mN/m
297.82 K, x2 = 0.4973
  surface tension liquid-gas: 25.55 ± 0.28 mN/m
297.82 K, x2 = 0.6011
  surface tension liquid-gas: 26 ± 0.29 mN/m
297.82 K, x2 = 0.7004
  surface tension liquid-gas: 26.5 ± 0.29 mN/m
297.82 K, x2 = 0.7998
  surface tension liquid-gas: 27.1 ± 0.3 mN/m
297.82 K, x2 = 0.8982
  surface tension liquid-gas: 27.33 ± 0.3 mN/m
298.15 K, x2 = 0
  mass density: 787 ± 1.8 kg/m3
298.15 K, x2 = 0.1
  mass density: 798.8 ± 1.8 kg/m3
298.15 K, x2 = 0.2002
  mass density: 807.1 ± 1.7 kg/m3
298.15 K, x2 = 0.3002
  mass density: 816.1 ± 1.7 kg/m3
298.15 K, x2 = 0.3997
  mass density: 825.6 ± 1.6 kg/m3
298.15 K, x2 = 0.4973
  mass density: 832.3 ± 1.6 kg/m3
298.15 K, x2 = 0.6011
  mass density: 839.7 ± 1.5 kg/m3
298.15 K, x2 = 0.7004
  mass density: 846.1 ± 1.5 kg/m3
298.15 K, x2 = 0.7998
  mass density: 851.9 ± 1.4 kg/m3
298.15 K, x2 = 0.8982
  mass density: 857.3 ± 1.4 kg/m3
303.15 K, x2 = 0
  mass density: 781.2 ± 1.9 kg/m3
303.15 K, x2 = 0.1
  mass density: 793.3 ± 1.8 kg/m3
303.15 K, x2 = 0.2002
  mass density: 801.6 ± 1.7 kg/m3
303.15 K, x2 = 0.3002
  mass density: 810.8 ± 1.7 kg/m3
303.15 K, x2 = 0.3997
  mass density: 820.4 ± 1.6 kg/m3
303.15 K, x2 = 0.4973
  mass density: 827.2 ± 1.6 kg/m3
303.15 K, x2 = 0.6011
  mass density: 834.7 ± 1.5 kg/m3
303.15 K, x2 = 0.7004
  mass density: 841.3 ± 1.5 kg/m3
303.15 K, x2 = 0.7998
  mass density: 847.2 ± 1.5 kg/m3
303.15 K, x2 = 0.8982
  mass density: 852.6 ± 1.4 kg/m3
307.86 K, x2 = 0
  surface tension liquid-gas: 21.59 ± 0.25 mN/m
307.86 K, x2 = 0.1
  surface tension liquid-gas: 22.08 ± 0.25 mN/m
307.86 K, x2 = 0.2002
  surface tension liquid-gas: 22.58 ± 0.26 mN/m
307.86 K, x2 = 0.3002
  surface tension liquid-gas: 23.1 ± 0.26 mN/m
307.86 K, x2 = 0.3997
  surface tension liquid-gas: 23.77 ± 0.27 mN/m
307.86 K, x2 = 0.4973
  surface tension liquid-gas: 24.4 ± 0.27 mN/m
307.86 K, x2 = 0.6011
  surface tension liquid-gas: 25 ± 0.28 mN/m
307.86 K, x2 = 0.7004
  surface tension liquid-gas: 25.4 ± 0.28 mN/m
307.86 K, x2 = 0.7998
  surface tension liquid-gas: 26 ± 0.29 mN/m
